In patent publication US10005792B2, “Aminoindane-, aminotetrahydronaphthalene- and aminobenzocyclobutane-derived PRMT5-inhibitors” (CTXT PTY LTD, priority 2014, dated 2018):
Counter-ions that a name gives are not always drawn.

Target: Full-length PRMT5 enzyme co-expressed with MEP50 (Homo sapiens (Human), UniProt O14744)
Test: Revised PRMT5 Biochemical Assay
Settings: 1 μM histone H4 derived peptide substrate, 1 μM S-Adenosyl methionine, 4 hours at 37 degree Celsius, Transcreener EPIGEN fluorescence polarisation
Experimental: Compounds of the invention may be tested for in vitro activity in the following assay: A histone H4 derived peptide is used as substrate (amino acid sequence: […]NH2). Full-length PRMT5 enzyme (NCBI Reference sequence NP-006100.2) was co-expressed with Hiss-MEP50 in insect cells and purified via Nickel immobilized metal affinity and gel filtration chromatography (“the enzyme”).
The 6 μL reactions are run in Greiner brand black 384-well low volume assay plates. All reactions contained assay buffer (phosphate buffered saline, 0.01% (v/v) Tween-20, 0.01% (w/v) albumin from chicken egg white, 1 mM Dithiothreitol, 1 μM peptide substrate, 1 μM S-Adenosyl methionine, and 15 ng/reaction enzyme, with the enzyme being omitted from negative control reactions. Compounds were added in a volume of 100 nL from dilution series prepared in DMSO, positive and negative control reactions receiving the same volume DMSO without compound. The plates were sealed with adhesive seals and incubated for 4 hours at 37 degree Celsius. Reaction progress was measured using the Transcreener™ EPIGEN methyltransferase assay (BellBrook Labs, Madison, Wis.) as recommended by the manufacturer. To each reaction 2 μL detection mix were added, containing coupling enzymes, fluorescence polarisation tracer, and AMP antibody. Plates were incubated for 90 minutes before being read on a PerkinElmer EnVision™ plate reader in fluorescence polarisation mode. IC50 values were obtained from the raw readings by calculating percent inhibition (% I) for each reaction relative to controls on the same plate (% I=(I−CN)/(CP−CN) where CN/CP are the averages of the negative/positive reactions, respectively), then fitting the % I data vs. compound concentration [I] to % I=([…]) where A is the lower asymptote, B is the upper asymptote, C is the IC50 value, and D is the slope.

Sequence of Full-length PRMT5 enzyme co-expressed with MEP50 (O14744 whole entry): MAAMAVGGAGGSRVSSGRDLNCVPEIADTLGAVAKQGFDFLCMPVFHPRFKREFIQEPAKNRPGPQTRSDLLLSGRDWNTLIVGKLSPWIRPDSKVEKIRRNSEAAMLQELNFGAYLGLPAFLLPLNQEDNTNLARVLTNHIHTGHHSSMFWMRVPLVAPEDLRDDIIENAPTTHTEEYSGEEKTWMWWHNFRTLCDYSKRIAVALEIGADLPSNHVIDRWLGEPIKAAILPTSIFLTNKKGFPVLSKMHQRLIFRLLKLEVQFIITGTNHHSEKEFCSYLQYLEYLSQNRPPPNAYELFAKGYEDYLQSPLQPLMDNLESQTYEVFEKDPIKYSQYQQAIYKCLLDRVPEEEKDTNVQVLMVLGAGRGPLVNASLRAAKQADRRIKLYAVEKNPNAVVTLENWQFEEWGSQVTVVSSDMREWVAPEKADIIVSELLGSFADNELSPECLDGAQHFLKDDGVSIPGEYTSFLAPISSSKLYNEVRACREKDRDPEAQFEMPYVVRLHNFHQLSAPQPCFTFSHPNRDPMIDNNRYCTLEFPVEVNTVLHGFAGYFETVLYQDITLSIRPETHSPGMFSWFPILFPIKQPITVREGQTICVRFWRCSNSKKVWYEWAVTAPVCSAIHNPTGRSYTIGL
Sequence of Full-length PRMT5 enzyme co-expressed with MEP50 (Q9BQA1 whole entry partner): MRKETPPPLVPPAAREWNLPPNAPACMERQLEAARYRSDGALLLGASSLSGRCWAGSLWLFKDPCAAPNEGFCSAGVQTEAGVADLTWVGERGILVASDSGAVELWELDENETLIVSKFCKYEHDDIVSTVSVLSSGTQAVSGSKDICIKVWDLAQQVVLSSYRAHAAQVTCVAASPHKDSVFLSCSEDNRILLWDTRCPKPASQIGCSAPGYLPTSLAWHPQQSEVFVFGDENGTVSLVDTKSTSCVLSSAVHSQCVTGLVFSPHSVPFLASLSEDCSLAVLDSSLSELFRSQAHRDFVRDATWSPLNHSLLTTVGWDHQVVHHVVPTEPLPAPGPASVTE

Row | SMILES | IC50 [nM]
1 | O=C(NC[C@@H](O)CNC1Cc2ccccc2C1)c1cccc(C(=O)N2CCOCC2)c1 [Compound 62, (S)-N-(3-((2,3-dihydro-1H-inden-2-yl)amino)-2-hydroxypropyl)-3-(morpholine-4-carbonyl)benzamide] | 6920
2 | O=C(NCC(O)CNC1Cc2ccccc2C1)c1ccc(N2CCCCC2=O)cc1 (stereo not drawn) [Compound 63, N-(3-((2,3-Dihydro-1H-inden-2-yl)amino)-2-hydroxypropyl)-4-(2-oxopiperidin-1-yl)benzamide] | 7300
3 | O=C(NC[C@@H](O)CNC1Cc2ccccc2C1)c1ccc(C(=O)N2CCCCC2)nc1 [Compound 68, (S)-N-(3-((2,3-dihydro-1H-inden-2-yl)amino)-2-hydroxypropyl)-6-(piperidine-1-carbonyl)nicotinamide] | 6170
4 | O=C(NC[C@H](O)CNC1Cc2ccccc2C1)c1ccc(C(=O)N2CCCCC2)nc1 [Compound 69, (R)-N-(3-((2,3-dihydro-1H-inden-2-yl)amino)-2-hydroxypropyl)-6-(piperidine-1-carbonyl)nicotinamide] | 10000
5 | O=C(NC[C@@H](O)CNC1Cc2ccccc2C1)c1ccc(CC(=O)N2CCCCC2)nc1 [Compound 78, (S)-N-(3-((2,3-dihydro-1H-inden-2-yl)amino)-2-hydroxypropyl)-6-(2-oxo-2-(piperidin-1-yl)ethyl)nicotinamide] | 5580
6 | NC(CNC(=O)c1ccc(C(=O)N2C3CCC2COC3)cc1)CNC1Cc2ccccc2C1 (stereo not drawn) [Compound 106, N-(2-Amino-3-((2,3-dihydro-1H-inden-2-yl)amino)propyl)-4-(3-oxa-8-azabicyclo[3.2.1]octane-8-carbonyl)benzamide] | 24300
7 | NC(=O)C(CNC(=O)c1ccc(C(=O)N2CCOCC2)cc1)CNC1Cc2ccccc2C1 (stereo not drawn) [Compound 107, N-(3-Amino-2-(((2,3-dihydro-1H-inden-2-yl)amino)methyl)-3-oxopropyl)-4-(morpholine-4-carbonyl)benzamide] | 52200
8 | O=C(NCC(CO)CNC1Cc2ccccc2C1)c1ccc(C(=O)N2CCOCC2)cc1 (stereo not drawn) [Compound 108, N-(3-((2,3-Dihydro-1H-inden-2-yl)amino)-2-(hydroxymethyl)propyl)-4-(morpholine-4-carbonyl)benzamide] | 21200
9 | CS(=O)(=O)N1CC(Nc2cc(C(=O)NC[C@@H](O)CNC3Cc4ccccc4C3)ccn2)C1 [Compound 109, (S)—N-(3-((2,3-Dihydro-1H-inden-2-yl)amino)-2-hydroxypropyl)-2-((1-(methylsulfonyl)azetidin-3-yl)amino)isonicotinamide bis 2,2,2-trifluoroacetic acid salt] | 11100
10 | CC(=O)N1CC(Nc2cc(C(=O)NC[C@@H](O)CNC3Cc4ccccc4C3)ccn2)C1 [Compound 110, (S)-2-((1-Acetylazetidin-3-yl)amino)-N-(3-((2,3-dihydro-1H-inden-2-yl)amino)-2-hydroxypropyl)isonicotinamide bis 2,2,2-trifluoroacetic acid salt] | 166
11 | CN(C[C@H](O)CNC(=O)c1ccc(C(=O)N2CCOCC2)cc1)C1Cc2ccccc2C1 [Compound 112, (R)—N-(3-((2,3-Dihydro-1H-inden-2-yl)(methyl)amino)-2-hydroxypropyl)-4-(morpholine-4-carbonyl)benzamide] | 9410
12 | O=C(NC[C@@H](O)CNC1Cc2ccccc2C1)c1cccc2ncsc12 [Compound 113, (S)-N-(3-((2,3-dihydro-1H-inden-2-yl)amino)-2-hydroxypropyl) benzo[d]thiazole-7-carboxamide] | 4150
13 | CCOc1nc(C(=O)N2C3CCC2COC3)ccc1C(=O)NC[C@@H](O)CNC1Cc2ccccc2C1 [Compound 115, 6-(3-oxa-8-azabicyclo[3.2.1]octane-8-carbonyl)-N-((S)-3-((2,3-dihydro-1H-inden-2-yl)amino)-2-hydroxypropyl)-2-ethoxynicotinamide] | 305

Results, then the molecule that gave them:

Row | IC50 [nM] | SMILES
14 | 180 | O=C(NC[C@@H](O)CNC1Cc2ccccc2C1)c1ccc(C(=O)N2CCC(CO)CC2)cc1 [Compound 61, (S)-N-(3-((2,3-dihydro-1H-inden-2-yl)amino)-2-hydroxypropyl)-4-(4-(hydroxymethyl)piperidine-1-carbonyl)benzamide]
15 | 1100 | CC(=O)N1CCC(Nc2ccc(C(=O)NCC(O)CNC3Cc4ccccc4C3)cc2)CC1 (stereo not drawn) [Compound 64, 4-((1-Acetylpiperidin-4-yl)amino)-N-(3-((2,3-dihydro-1H-inden-2-yl)amino)-2-hydroxypropyl) benzamide]
16 | 1300 | O=C(NC[C@@H](O)CNC1Cc2ccccc2C1)c1ccc(C(=O)N2CCS(=O)(=O)CC2)cc1 [Compound 65, (S)—N-(3-((2,3-dihydro-1H-inden-2-yl)amino)-2-hydroxypropyl)-4-(1,1-dioxidothiomorpholine-4-carbonyl)benzamide]
17 | 1560 | O=C(NC[C@@H](O)CNC1Cc2ccccc2C1)c1ccc(C(=O)N2CC3(COC3)C2)cc1 [Compound 66, (S)-N-(3-((2,3-dihydro-1H-inden-2-yl)amino)-2-hydroxypropyl)-4-(2-oxa-6-azaspiro[3.3]heptane-6-carbonyl)benzamide]
18 | 237 | CC[C@@H]1COCCN1C(=O)c1ccc(C(=O)NC[C@@H](O)CNC2Cc3ccccc3C2)cc1 [Compound 71, N-((S)-3-((2,3-dihydro-1H-inden-2-yl)amino)-2-hydroxypropyl)-4-((R)-3-ethylmorpholine-4-carbonyl)benzamide]
19 | 341 | CC1(C)CN(C(=O)c2ccc(C(=O)NC[C@@H](O)CNC3Cc4ccccc4C3)cc2)CCO1 [Compound 72, (S)-N-(3-((2,3-dihydro-1H-inden-2-yl)amino)-2-hydroxypropyl)-4-(2,2-dimethylmorpholine-4-carbonyl)benzamide]
20 | 253 | COCC1CCCCN1C(=O)c1ccc(C(=O)NC[C@@H](O)CNC2Cc3ccccc3C2)cc1 (stereo partly drawn) [Compound 80, N-((S)-3-((2,3-dihydro-1H-inden-2-yl)amino)-2-hydroxypropyl)-4-(2-(methoxymethyl)piperidine-1-carbonyl)benzamide]
21 | 1370 | COC1CCN(C(=O)c2ccc(C(=O)NC[C@@H](O)CNC3Cc4ccccc4C3)cc2)C1 (stereo partly drawn) [Compound 81, N-((S)-3-((2,3-dihydro-1H-inden-2-yl)amino)-2-hydroxypropyl)-4-(3-methoxypyrrolidine-1-carbonyl)benzamide]
22 | 682 | COC1CCN(C(=O)c2ccc(C(=O)NC[C@@H](O)CNC3Cc4ccccc4C3)cc2)CC1 [Compound 86, (S)-N-(3-((2,3-dihydro-1H-inden-2-yl)amino)-2-hydroxypropyl)-4-(4-methoxypiperidine-1-carbonyl)benzamide]
23 | 2760 | COc1cc(CC(=O)N2CCOCC2)ccc1C(=O)NC[C@@H](O)CNC1Cc2ccccc2C1 [Compound 87, (S)-N-(3-((2,3-dihydro-1H-inden-2-yl)amino)-2-hydroxypropyl)-2-methoxy-4-(2-morpholino-2-oxoethyl)benzamide]
24 | 229 | O=C(NC[C@@H](O)CNC1Cc2ccccc2C1)c1ccc(C(=O)N2CCC3(CCO3)CC2)cc1 [Compound 88, (S)-N-(3-((2,3-dihydro-1H-inden-2-yl)amino)-2-hydroxypropyl)-4-(1-oxa-7-azaspiro[3.5]nonane-7-carbonyl)benzamide]
25 | 853 | COC(=O)Cc1ccc(C(=O)NC[C@@H](O)CNC2Cc3ccccc3C2)cc1 [Compound 89, (S)-methyl 2-(4-((3-((2,3-dihydro-1H-inden-2-yl)amino)-2-hydroxypropyl)carbamoyl)phenyl)acetate]
26 | 3150 | O=C(NC[C@@H](O)CNC1Cc2ccccc2C1)c1ccc(CC(=O)N2CCOCC2)cc1 [Compound 90, (S)-N-(3-((2,3-dihydro-1H-inden-2-yl)amino)-2-hydroxypropyl)-4-(2-morpholino-2-oxoethyl)benzamide]
27 | 1230 | O=C(NC[C@H](O)CNC1Cc2ccccc2C1)c1ccc(CC(=O)N2CCCC2)cc1 [Compound 91, (R)-N-(3-((2,3-dihydro-1H-inden-2-yl)amino)-2-hydroxypropyl)-4-(2-oxo-2-(pyrrolidin-1-yl)ethyl)benzamide]
28 | 1100 | O=C(NC[C@@H](O)CNC1Cc2ccccc2C1)c1ccc(CC(=O)N2CCCC2)cc1 [Compound 100, (S)-N-(3-((2,3-dihydro-1H-inden-2-yl)amino)-2-hydroxypropyl)-4-(2-oxo-2-(pyrrolidin-1-yl)ethyl)benzamide]
29 | 482 | CC1(C)COCCN1C(=O)c1ccc(C(=O)NC[C@@H](O)CNC2Cc3ccccc3C2)cc1 [Compound 102, (S)-N-(3-((2,3-dihydro-1H-inden-2-yl)amino)-2-hydroxypropyl)-4-(3,3-dimethylmorpholine-4-carbonyl)benzamide]
30 | 514 | O=C(NC[C@@H](O)CNC1Cc2ccccc2C1)c1ccc(C(=O)N2CCOCC23CCC3)cc1 [Compound 104, (S)-N-(3-((2,3-dihydro-1H-inden-2-yl)amino)-2-hydroxypropyl)-4-(8-oxa-5-azaspiro[3.5]nonane-5-carbonyl)benzamide]
